The results in this text go back to US20090221567A1, “MUSCARINIC RECEPTOR AGONISTS, COMPOSITIONS, METHODS OF TREATMENT THEREOF, AND PROCESSES FOR PREPARATION THEREOF 177” (ASTRAZENECA AB, priority 2008, published 2009).

Test [1] has as its target T1, hM3 (human Muscarinic receptor subtype 3) (Homo sapiens, UniProt P20309).
T1 construct: expressed in transfected cells; host or cells: CHO cells (Chinese hamster ovary cells, ATCC)
The experiment in a line: Human M3 calcium mobilization FLIPR assay. In kind it is cell-based. Particulars: receptor expressed in CHO cells, intracellular Ca2+ release. The protocol: (§1) The compound activity in the present invention (EC50 or IC50) is measured using a 384 plate-based imaging assay that monitors drug induced intracellular Ca^2+ release in whole cells. Activation of hM1 (human Muscarinic receptor subtype 1, gene bank access NM_000738), rM1 (rat Muscarinic receptor subtype 1, gene bank access NM_080773), hM3 (human Muscarinic receptor subtype 3, gene bank access NM_000740NM_000740) and hM5 (human Muscarinic receptor subtype 5, gene bank access NM_0121258), receptors expressed in CHO cells (Chinese hamster ovary cells, ATCC) is quantified in a Molecular Devices FLIPR IITM instrument as an increase in fluorescent signal. Inhibition of hM3 and hM5 by compounds is determined by the decrease in fluorescent signal in response to 2 nM acetylcholine activation.
(§2) Prior to experiment, the cell culture medium is removed from the plates by inversion. […] Plates are incubated at 37° C. for 60 minutes prior to start the experiment. The incubation is terminated by washing the cells four times in assay buffer, leaving a residual 25 μl buffer per well. Cell plates are then transferred to the FLIPR, ready for compound additions.
(§3) The day of experiment, acetylcholine and compounds are diluted in assay buffer in three-fold concentration range (10 points serial dilution) for addition by FLIPR instrument. For all calcium assays, a baseline reading is taken for 10 seconds followed by the addition of 12.5 μl of compounds, resulting in a total well volume of 37.5 μl. Data is collected every second for 60 pictures and then every 6 seconds for 20 pictures prior to the addition of agonist. For hM3 and hM5, before agonist addition, a second baseline reading is taken for 10 seconds followed by the addition of 12.5 μl of agonist or buffer, producing a final volume of 50 μl. After agonist stimulation, the FLIPR continues to collect data every second for 60 pictures and then every 6 seconds for 20 pictures. The fluorescence emission is read using filter 1 (emission 510-570 nm) by the FLIPR on board CCD camera.
(§4) Calcium mobilization output data are calculated as the maximal relative fluorescence unit (RFU) minus the minimal value for both compound and agonist reading frame (except for hM1 and rM1 using only the maximal RFU). Data are analyzed using sigmoidal fits of a non-linear curve-fitting program (XLfit version 4.2.2 Excel add-in version 4.2.2 build 18 math 1Q version 2.1.2 build 18). All pEC50 and pIC50 values are reported as arithmetic means±standard error of mean of ‘n’ independent experiments.
On the technique in general: Calcium assays in cells follow changes in intracellular calcium, usually with a dye or a luminescent sensor.

Test [2] concerns the target T2, hM1 (human Muscarinic receptor subtype 1) (Homo sapiens, UniProt P11229).
T2 construct: expressed in transfected cells; host or cells: CHO cells (Chinese hamster ovary cells, ATCC)
T2 sequence (P11229 1-460): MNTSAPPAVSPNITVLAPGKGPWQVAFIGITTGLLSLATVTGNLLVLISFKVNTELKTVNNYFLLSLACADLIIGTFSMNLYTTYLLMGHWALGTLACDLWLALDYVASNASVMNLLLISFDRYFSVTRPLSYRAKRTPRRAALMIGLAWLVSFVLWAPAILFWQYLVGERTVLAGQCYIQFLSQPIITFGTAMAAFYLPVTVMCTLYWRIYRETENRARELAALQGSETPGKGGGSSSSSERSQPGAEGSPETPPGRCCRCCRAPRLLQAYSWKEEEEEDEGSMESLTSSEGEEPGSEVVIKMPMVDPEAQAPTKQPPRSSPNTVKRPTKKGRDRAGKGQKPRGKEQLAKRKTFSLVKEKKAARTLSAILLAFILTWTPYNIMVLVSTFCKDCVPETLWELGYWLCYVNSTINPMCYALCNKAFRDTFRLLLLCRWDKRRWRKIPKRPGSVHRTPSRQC
The experiment in a line: Human M1 calcium mobilization FLIPR assay. Type of test: cell-based. Particulars: receptor expressed in CHO cells, intracellular Ca2+ release; read-out: hM1 EC50. How it is done: as §1, §2, §3, §4

Test [3] has as its target T3, human M4 receptor (human Muscarinic receptor subtype 4) (Homo sapiens, UniProt P08173).
T3 construct: purchased Perkin-Elmer RBHM4M; host or cells: membranes from CHO cells expressing the cloned receptor
T3 sequence (P08173 1-479): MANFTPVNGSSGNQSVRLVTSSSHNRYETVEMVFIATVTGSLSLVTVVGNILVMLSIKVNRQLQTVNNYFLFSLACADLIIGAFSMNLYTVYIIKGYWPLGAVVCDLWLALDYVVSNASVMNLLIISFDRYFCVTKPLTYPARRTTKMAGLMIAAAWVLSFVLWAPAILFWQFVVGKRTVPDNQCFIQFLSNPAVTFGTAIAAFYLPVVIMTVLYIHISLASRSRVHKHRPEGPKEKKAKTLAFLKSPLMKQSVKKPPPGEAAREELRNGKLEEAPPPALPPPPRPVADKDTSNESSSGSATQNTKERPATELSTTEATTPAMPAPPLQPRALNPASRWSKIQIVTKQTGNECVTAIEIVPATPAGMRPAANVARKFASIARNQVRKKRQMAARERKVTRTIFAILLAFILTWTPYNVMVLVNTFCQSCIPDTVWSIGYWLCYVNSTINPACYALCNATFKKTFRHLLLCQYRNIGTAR
As to the kind of experiment: hM4 receptor GTPγS binding. In kind it is biochemical. Particulars: CHO membranes, [35S]GTPγS binding. The protocol:
Membranes produced from Chinese hamster ovary cells (CHO) expressing the cloned human M4 receptor (human Muscarinic receptor subtype 4, gene bank access NM_000741), are obtained from Perkin-Elmer (RBHM4M). The membranes are thawed at 37° C., passed 3 times through a 23-gauge blunt-end needle, diluted in the GTPγS binding buffer (50 mM Hepes, 20 mM NaOH, 100 mM NaCl, 1 mM EDTA, 5 mM MgCl2, pH 7.4, 100 μM DTT). The EC50, IC50 and Emax of the compounds of the invention are evaluated from 10-point dose-response curves (three fold concentration range) done in 60 μl in 384-well non-specific binding surface plate (Corning). Ten microliters from the dose-response curves plate (5× concentration) are transferred to another 384 well plate containing 25 μl of the following: 10 μg of hM4 membranes, 500 μg of Flashblue beads (Perkin-Elmer) and GDP 40 μM. An additional 15 μl containing 3.3× (60,000 dpm) of GTPγS (0.4 nM final) are added to the wells resulting in a total well volume of 50 μl. Basal and maximal stimulated [^35S]GTPγS binding are determined in absence and presence of 30 μM final of acetylcholine agonist. The membranes/beads mix are pre-incubated for 15 minutes at room temperature with 40 μM GDP prior to distribution in plates (20 μM final). The reversal of acetylcholine-induced stimulation (10 μM final) of [^35S]GTPγS binding is used to assay the antagonist properties (IC50) of the compounds. The plates are incubated for 60 minutes at room temperature then centrifuged at 400 rpm for 5 minutes. The radioactivity (cpm) is counted in a Trilux (Perkin-Elmer).
Values of EC50, IC50 and Emax are obtained using sigmoidal fits of a non-linear curve-fitting program (XLfit version 4.2.2 Excel add-in version 4.2.2 build 18 math 1Q version 2.1.2 build 18) of percent stimulated [^35S]GTPγS binding vs. log(molar ligand). All pEC50 and pIC50 values are reported as arithmetic means±standard error of mean of ‘n’ independent experiments.

T1 sequence (P20309 whole entry): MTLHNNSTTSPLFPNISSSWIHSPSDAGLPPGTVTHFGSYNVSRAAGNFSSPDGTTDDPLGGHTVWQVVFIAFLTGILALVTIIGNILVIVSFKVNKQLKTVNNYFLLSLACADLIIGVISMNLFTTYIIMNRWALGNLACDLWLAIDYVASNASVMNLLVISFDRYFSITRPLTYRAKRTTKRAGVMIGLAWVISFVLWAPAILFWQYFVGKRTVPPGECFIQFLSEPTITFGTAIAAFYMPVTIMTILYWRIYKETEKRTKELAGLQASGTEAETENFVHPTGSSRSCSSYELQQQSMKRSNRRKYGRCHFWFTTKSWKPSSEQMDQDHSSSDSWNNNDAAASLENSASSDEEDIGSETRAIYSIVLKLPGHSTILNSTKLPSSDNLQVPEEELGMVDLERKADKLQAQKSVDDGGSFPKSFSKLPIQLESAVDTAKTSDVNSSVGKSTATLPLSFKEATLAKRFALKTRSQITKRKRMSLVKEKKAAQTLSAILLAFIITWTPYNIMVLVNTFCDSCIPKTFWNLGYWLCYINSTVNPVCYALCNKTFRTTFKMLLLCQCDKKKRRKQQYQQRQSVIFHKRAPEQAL

Take `CC(C)OC(=O)N1CCC(N2CCC(N3C(=O)CO[C@H]4CCCC[C@@H]43)CC2)CC1` [Example 10, Propan-2-yl 4-[4-[(1S,6S)-9-oxo-7-oxa-10-azabicyclo[4.4.0]dec-10-yl]-1-piperidyl]piperidine-1-carboxylate]: the EC50 – broadly, the midpoint of the concentration-response curve – in test [1] is greater than 40 µM; in test [2], 0.022 µM; in test [3], greater than 30 µM.

As for `Cc1ccccc1C(=O)N1CCC(N2CCC(N3C(=O)NC[C@H]4CCCC[C@@H]43)CC2)CC1` [Example 4, (4aR,8aS)-1-[1-[1-(2-methylbenzoyl)-4-piperidyl]-4-piperidyl]-3,4,4a,5,6,7,8,8a-octahydroquinazolin-2-one], the concentration giving a half-maximal response (EC50) was greater than 49 µM in test [1], 0.025 µM in test [2] and greater than 30 µM in test [3].
